Measurements: patent US20250304567A1, “PYRROLIDIONE DERIVATIVES AS INHIBITORS OF NF KAPPA B INDUCING KINASE” (priority 2022, published 2025)
Where two headings read alike, the source gives them in different places.

How the values were obtained:
[1] = molecular target: Recombinant Human NF-kappaB-Inducing Kinase (NIK/MAP3K14) (Homo sapiens, UniProt Q99558); assay: Inhibition of auto-phosphorylation of recombinant human NIK/MAP3K14 activity (AlphaScreen); format: biochemical; settings: 5 μM ATP, 1 nM NIK, average if tested more than once
Sequence of Recombinant Human NF-kappaB-Inducing Kinase (NIK/MAP3K14) (Q99558 whole entry): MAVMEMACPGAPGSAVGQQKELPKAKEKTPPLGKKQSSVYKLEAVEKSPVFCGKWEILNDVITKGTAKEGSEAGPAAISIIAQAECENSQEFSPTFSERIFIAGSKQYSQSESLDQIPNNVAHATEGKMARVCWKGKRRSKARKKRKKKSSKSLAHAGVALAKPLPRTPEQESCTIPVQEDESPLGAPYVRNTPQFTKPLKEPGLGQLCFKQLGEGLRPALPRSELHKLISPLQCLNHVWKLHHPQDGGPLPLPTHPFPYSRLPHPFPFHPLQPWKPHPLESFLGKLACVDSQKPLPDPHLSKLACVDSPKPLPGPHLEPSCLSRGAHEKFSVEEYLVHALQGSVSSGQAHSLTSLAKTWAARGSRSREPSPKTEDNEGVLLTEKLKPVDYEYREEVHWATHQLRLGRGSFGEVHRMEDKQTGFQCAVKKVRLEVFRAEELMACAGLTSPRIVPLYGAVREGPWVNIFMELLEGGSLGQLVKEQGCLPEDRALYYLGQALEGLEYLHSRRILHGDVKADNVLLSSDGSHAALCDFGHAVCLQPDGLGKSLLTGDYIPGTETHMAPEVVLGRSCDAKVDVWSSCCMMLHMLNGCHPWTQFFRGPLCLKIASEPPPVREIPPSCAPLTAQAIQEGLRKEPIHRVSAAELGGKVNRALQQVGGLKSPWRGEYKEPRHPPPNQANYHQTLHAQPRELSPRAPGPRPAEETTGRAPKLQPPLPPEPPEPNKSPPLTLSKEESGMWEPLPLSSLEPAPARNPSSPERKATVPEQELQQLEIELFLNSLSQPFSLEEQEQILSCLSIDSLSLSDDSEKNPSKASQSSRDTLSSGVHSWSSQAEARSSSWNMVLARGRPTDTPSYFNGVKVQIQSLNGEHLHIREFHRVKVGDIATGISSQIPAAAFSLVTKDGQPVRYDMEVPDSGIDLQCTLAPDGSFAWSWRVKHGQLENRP
Method in brief: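 AlphaScreen detection of phospho-Ser176/180 after 1 nM GST-NIK auto-phosphorylates for 2 h at 25 °C with 5 μM ATP (50 mM Tris pH 7.5, 0.7% DMSO). IC50s come from sigmoidal curves of % inhibition against log dose, using enzyme-free, ATP-free low controls and full-activity high controls.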

[2] = test system: p-IKKa levels in L363 (NIK translocated multiple myeloma) cells; assay: Effect of compounds on p-IKKa levels in L363 (NIK translocated multiple myeloma) cells (AlphaLISA SureFire Ultra p-IKKa Ser176/180); format: cell-based, human; settings: average if tested more than once, read-out: Assay 2 IC50
Method in brief: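 Phospho-IKKa (Ser176/180) in lysates quantified by AlphaLISA after 6 h compound exposure, 11-point threefold dilutions, 0.3% DMSO. L363 cells were pre-stimulated overnight and assayed with 250 ng/ml BAFF and 10 μM MG132; % inhibition fitted sigmoidally for IC50, duplicate curves.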

[3] = Homo sapiens, L-363, p-IKKa levels in L363 cells

| Structure (SMILES) | IC50 [1] | IC50 [2, 3] | IC50 ([2]; p-IKKa levels in L363 cells) |
| --- | --- | --- | --- |
| CN1C[C@H](Nc2nccc(-c3csc(-c4cccc([C@]5(O)CCN(C)C5=O)c4)n3)n2)CC1=O (single isomer, unassigned) [Example 234] | 0.1 to 0.5 µM | > 0.501 µM |  |
| CO[C@H]1C[C@H](Nc2nccc(-c3csc(-c4cccc([C@]5(O)CCN(C)C5=O)c4)n3)n2)C1 [Example 215] | < 0.1 µM | > 0.501 µM |  |
| CN1CC[C@@](O)(c2cncc(-c3ccn(-c4ccnc(Nc5cnn6ccccc56)n4)n3)c2)C1=O (single isomer, unassigned) [Example 146, (R)-3-hydroxy-1-methyl-3-(5-(1-(2-(pyrazolo[1,5-a]pyridin-3-ylamino)pyrimidin-4-yl)-1H-pyrazol-3-yl)pyridin-3-yl)pyrrolidin-2-one or (S)-3-hydroxy-1-methyl-3-(5-(1-(2-(pyrazolo[1,5-a]pyridin-3-ylamino)pyrimidin-4-yl)-1H-pyrazol-3-yl)pyridin-3-yl)pyrrolidin-2-one] | < 0.1 µM | < 0.1 µM |  |
| CN1CC[C@@](O)(c2cccc(-c3nc(-c4ccnc(Nc5ccon5)n4)cs3)c2)C1=O [Example 266, (R)-3-Hydroxy-3-(3-(4-(2-(isoxazol-3-ylamino)pyrimidin-4-yl)thiazol-2-yl)phenyl)-1-methylpyrrolidin-2-one] | < 0.1 µM | 0.1 to 0.5 µM |  |
| CN1CC[C@@](O)(c2cccc(-c3nc(-c4ccnc(NCC5CCO5)n4)cs3)c2)C1=O (stereo partly shown) [Example 190] | 0.1 to 0.5 µM | > 0.501 µM |  |
| Cc1cc(Nc2nccc(-c3csc(-c4cccc([C@]5(O)CCN(C)C5=O)c4)n3)n2)ccn1 [Example 43, (R)-3-Hydroxy-1-methyl-3-(3-(4-(2-((2-methylpyridin-4-yl)amino)pyrimidin-4-yl)thiazol-2-yl)phenyl)pyrrolidin-2-one] | < 0.1 µM | 0.1 to 0.5 µM |  |
| CNC(=O)c1cc(Nc2nccc(-c3csc(-c4cccc([C@]5(O)CCN(C)C5=O)c4)n3)n2)n(CC(C)C)n1 [Example 13, (R)-5-((4-(2-(3-(3-Hydroxy-1-methyl-2-oxopyrrolidin-3-yl)phenyl)thiazol-4-yl)pyrimidin-2-yl)amino)-1-isobutyl-N-methyl-1H-pyrazole-3-carboxamide] | < 0.1 µM | 0.1 to 0.5 µM |  |
| CN1CC[C@@](O)(c2cccc(-c3nc(-c4ccnc(NCCn5cccn5)n4)cs3)c2)C1=O [Example 198] | 0.1 to 0.5 µM | > 0.501 µM |  |
| Cc1ncccc1CNc1nccc(-c2csc(-c3cccc([C@]4(O)CCN(C)C4=O)c3)n2)n1 [Example 219] | < 0.1 µM | > 0.501 µM |  |
| C[C@@H](Nc1nccc(-c2csc(-c3cccc([C@]4(O)CCN(C)C4=O)c3)n2)n1)c1cn[nH]c1 (single isomer, unassigned) [Example 139] | < 0.1 µM | < 0.1 µM |  |
| Cc1nccc(Nc2nccc(-c3csc(-c4cccc([C@]5(O)CCN(C)C5=O)c4)n3)n2)n1 [Example 159, (R)-3-Hydroxy-1-methyl-3-(3-(4-(2-((2-methylpyrimidin-4-yl)amino)pyrimidin-4-yl)thiazol-2-yl)phenyl)pyrrolidin-2-one] | < 0.1 µM | > 0.501 µM |  |
| CN1CCC(O)(c2cc(C#N)cc(-c3csc(-c4ccnc(Nc5ccn(C)n5)n4)n3)c2)C1=O (single isomer, unassigned) [Example 57, 3-(3-hydroxy-1-methyl-2-oxopyrrolidin-3-yl)-5-(2-(2-((1-methyl-1H-pyrazol-3-yl)amino)pyrimidin-4-yl)thiazol-4-yl)benzonitrile] | < 0.1 µM | > 0.501 µM |  |
| CCn1cc(Nc2nccc(-c3csc(-c4cccc([C@]5(O)CCN(C)C5=O)c4)n3)n2)c(C)n1 [Example 270, (R)-3-(3-(4-(2-((1-Ethyl-3-methyl-1H-pyrazol-4-yl)amino)pyrimidin-4-yl)thiazol-2-yl)phenyl)-3-hydroxy-1-methylpyrrolidin-2-one] | < 0.1 µM | < 0.1 µM |  |
| CN1CC[C@@](O)(c2cccc(-c3nc(-c4ccnc(Nc5ccn(CC6CC6)n5)n4)cs3)c2)C1=O [Example 288, (R)-3-(3-(4-(2-((1-(cyclopropylmethyl)-1H-pyrazol-3-yl)amino)pyrimidin-4-yl)thiazol-2-yl)phenyl)-3-hydroxy-1-methylpyrrolidin-2-one] | < 0.1 µM | 0.1 to 0.5 µM |  |
| CN1CC[C@@](O)(c2cccc(-c3nc(-c4ccnc(Nc5cnn(C6CC6)c5)n4)cs3)c2)C1=O [Example 263, (R)-3-(3-(4-(2-((1-Cyclopropyl-1H-pyrazol-4-yl)amino)pyrimidin-4-yl)thiazol-2-yl)phenyl)-3-hydroxy-1-methylpyrrolidin-2-one] | < 0.1 µM | 0.1 to 0.5 µM |  |
| Cc1nc(Nc2nccc(-c3csc(-c4cccc([C@]5(O)CCN(C)C5=O)c4)n3)n2)sc1C [Example 233] | < 0.1 µM | 0.1 to 0.5 µM |  |
| CN1CC[C@@](O)(c2cccc(-c3nc(-c4ccnc(NCC5(O)CC5)n4)cs3)c2)C1=O [Example 240] | 0.1 to 0.5 µM | > 0.501 µM |  |
| CN1CC[C@@](O)(c2cccc(-c3nc(-c4ccnc(Nc5ccn(-c6ccccc6)n5)n4)cs3)c2)C1=O [Example 284, (R)-3-hydroxy-1-methyl-3-(3-(4-(2-((1-phenyl-1H-pyrazol-3-yl)amino)pyrimidin-4-yl)thiazol-2-yl)phenyl)pyrrolidin-2-one] | < 0.1 µM | 0.1 to 0.5 µM |  |

| Structure (SMILES) | IC50 [1] | IC50 [2, 3] | IC50 ([2]; p-IKKa levels in L363 cells) |
| --- | --- | --- | --- |
| CN1CCC(Nc2nccc(-c3csc(-c4cccc([C@]5(O)CCN(C)C5=O)c4)n3)n2)C1=O (stereo partly shown) [Example 201] | > 0.501 µM | > 0.501 µM |  |
| CN1CC[C@@](O)(c2cccc(-c3nc(-c4ccnc(N)n4)cs3)c2)C1=O [Example 6, (R)-3-(3-(4-(2-Aminopyrimidin-4-yl)thiazol-2-yl)phenyl)-3-hydroxy-1-methylpyrrolidin-2-one] | 0.1 to 0.5 µM | > 0.501 µM |  |
| CN1CC[C@@](O)(c2cccc(-c3nc(-c4ccnc(Nc5cnn(C6CCOC6)c5)n4)cs3)c2)C1=O (single isomer, unassigned) [Example 18] | < 0.1 µM | 0.1 to 0.5 µM |  |
| CN1CC[C@@](O)(c2cccc(-c3nc(-c4ccnc(Nc5ccnn5CC(F)F)n4)cs3)c2)C1=O [Example 278, (R)-3-(3-(4-(2-((1-(2,2-Difluoroethyl)-1H-pyrazol-5-yl)amino)pyrimidin-4-yl)thiazol-2-yl)phenyl)-3-hydroxy-1-methylpyrrolidin-2-one] | 0.1 to 0.5 µM | > 0.501 µM |  |
| COC[C@H](Nc1nccc(-c2nc(-c3cccc([C@]4(O)CCN(C)C4=O)c3)cs2)n1)c1ccnn1C (single isomer, unassigned) [Example 129] | < 0.1 µM | 0.1 to 0.5 µM |  |
| CN1CC[C@@](O)(c2cccc(-c3nc(-c4ccnc(N[C@H]5CC[C@@H](O)C5)n4)cs3)c2)C1=O [Example 253] | < 0.1 µM | > 0.501 µM |  |
| CN1CC[C@@](O)(c2cccc(-c3csc(-c4ccnc(Nc5ccn(CC6CC6)n5)n4)n3)c2)C1=O [Example 289, (R)-3-(3-(2-(2-((1-(cyclopropylmethyl)-1H-pyrazol-3-yl)amino)pyrimidin-4-yl)thiazol-4-yl)phenyl)-3-hydroxy-1-methylpyrrolidin-2-one] | > 0.501 µM | > 0.501 µM |  |
| Cc1cccnc1CNc1nccc(-c2csc(-c3cccc([C@]4(O)CCN(C)C4=O)c3)n2)n1 [Example 206] | < 0.1 µM | > 0.501 µM |  |
| CN1C[C@@H](Nc2nccc(-c3csc(-c4cccc([C@]5(O)CCN(C)C5=O)c4)n3)n2)CC1=O (single isomer, unassigned) [Example 235] | < 0.1 µM | > 0.501 µM |  |
| CN1CC[C@@](O)(c2cccc(-c3nc(-c4ccnc(NC5CCC(F)(F)CC5)n4)cs3)c2)C1=O [Example 241] | < 0.1 µM | > 0.501 µM |  |
| CN1CC[C@@](O)(c2cccc(-c3nc(-c4ccnc(NCCc5ccccn5)n4)cs3)c2)C1=O [Example 189] | 0.1 to 0.5 µM | > 0.501 µM |  |
| CN1CC[C@@](O)(c2cccc(-c3nc(-c4ccnc(N[C@H]5CCCc6cn[nH]c65)n4)cs3)c2)C1=O (single isomer, unassigned) [Example 136] | 0.1 to 0.5 µM | > 0.501 µM |  |
| CN1CC[C@@](O)(c2cccc(-c3nc(-c4ccnc(NCCS(C)(=O)=O)n4)cs3)c2)C1=O [Example 173] | 0.1 to 0.5 µM | > 0.501 µM |  |
| C[C@@H](Nc1nccc(-c2nc(-c3cc([C@]4(O)CCN(C)C4=O)ccn3)cs2)n1)c1ccnn1C [Example 291, (R)-3-Hydroxy-1-methyl-3-(2-(2-(2-(((R)-1-(1-methyl-1H-pyrazol-5-yl)ethyl)amino)pyrimidin-4-yl)thiazol-4-yl)pyridin-4-yl)pyrrolidin-2-one] | < 0.1 µM | 0.1 to 0.5 µM |  |
| CN1CC(Nc2nccc(-c3csc(-c4cccc([C@]5(O)CCN(C)C5=O)c4)n3)n2)CCC1=O (stereo partly shown) [Example 222] | < 0.1 µM | > 0.501 µM |  |
| CN1CC[C@@](O)(c2cccc(-c3nc(-c4ccnc(Nc5ccn(C6CC6)n5)n4)cs3)c2)C1=O [Example 259, (R)-3-(3-(4-(2-((1-Cyclopropyl-1H-pyrazol-3-yl)amino)pyrimidin-4-yl)thiazol-2-yl)phenyl)-3-hydroxy-1-methylpyrrolidin-2-one] | < 0.1 µM | 0.1 to 0.5 µM |  |
| CC(Nc1nccc(-c2nc(-c3cccc(C4(O)CCN(C)C4=O)c3)cs2)n1)c1cnn(C)c1 (single isomer, unassigned) [Example 40] | < 0.1 µM |  | > 0.501 µM |
